According to patent US7511123B2, “Immuno-interactive fragments of the alpha-C subunit of inhibin” (Prince Henry's Institute of Medical Research, priority 1999, dated 2009):

B1: rh-inhibin B: recombinant human inhibin B (protein, UniProt P05111 233-366; P09529 293-407, looked up)
Inhibin alpha chain: STPLMSWPWSPSALRLLQRPPEEPAAHANCHRVALNISFQELGWERWIVYPPSFIFHYCHGGCGLHIPPNLSLPVPGAPPTPAQPYSLLPGAQPCCAALPGTMRPLHVRTTSDGGYSFKYETVPNLLTQHCACI
Inhibin beta B chain: GLECDGRTNLCCRQQFFIDFRLIGWNDWIIAPTGYYGNYCEGSCPAYLAGVPGSASSFHTAVVNQYRMRGLNPGTVNSCCIPTKLSTMSMLYFDDEYNIVKRDVPNMIVEECGCA
B2: rh-inhibin A: recombinant human inhibin A standard (protein)
chain 1: STPLMSWPWSPSALRLLQRPPEEPAAHANCHRVALNISFQELGWERWIVYPPSFIFHYCHGGCGLHIPPNLSLPVPGAPPTPAQPYSLLPGAQPCCAALPGTMRPLHVRTTSDGGYSFKYETVPNLLTQHCACI
chain 2: GLECDGKVNICCKKQFFVSFKDIGWNDWIIAPSGYHANYCEGECPSHIAGTSGSSLSFHSTVINHYRMRGHSPFANLKSCCVPTKLRPMSMLYYDDGQNIIKKDIQNMIVEECGCS
B3: Pro-(alpha)C: preparation provided as standard in Pro-(alpha)C ELISA by Oxford Bio-innovations Ltd, UK (protein)
chain: CQGLELARELVLAKVRALFLDALGPPAVTREGGDPGVRRLPRRHALGGFTHRGSEPEEEEDVSQAILFPATDASCEDKSAARGLAQEAEEGLFRYMFRPSQHTRSRQVTSAQLWFHTGLDRQGTAASNSSEPLLGLLALSPGGPVAVPMSLGHAPPHWAVLHLATSALSLLTHPVLVLLLRCPLCTCSARPEATPFLVAHTRTRPPSGGERARRSTPLMSWPWSPSALRLLQRPPEEPAAHANCHRVALNISFQELGWERWIVYPPSFIFHYCHGGCGLHIPPNLSLPVPGAPPTPAQPYSLLPGAQPCCAALPGTMRPLHVRTTSDGGYSFKYETVPNLLTQHCACI
B4: rh-activin A: recombinant human activin A (protein, UniProt P08476 311-426, looked up)
Inhibin beta A chain: GLECDGKVNICCKKQFFVSFKDIGWNDWIIAPSGYHANYCEGECPSHIAGTSGSSLSFHSTVINHYRMRGHSPFANLKSCCVPTKLRPMSMLYYDDGQNIIKKDIQNMIVEECGCS

Experiments:
[1] = system: As #41; experiment: RIA (Assay 2): competition with iodinated inhibin for As #41; format: binding, sheep; conditions: for As#41 ED50: biotinylated peptides, 50% fall in binding of iodinated inhibin
Text: (§1) This assay was used to determine which peptides compete with iodinated 30 kDa inhibin for As #41, #128 and #1989 (used in the original inhibin RIA, Lapphorn et al., 1989, supra) in a RIA format. This assay identifies those peptides that bind to inhibin-binding antibodies in the antiserum and provides a stricter affinity and specificity assessment in identifying the appropriate epitopes than that found with Assay 1. The competition between peptide and hr-inhibin (used as the standard) was assessed from their ED50 values. The RIA consisted of the competition of iodinated inhibin and either hr-inhibin reference preparation, individual peptides or pools from the 4 peptide regions, with As #41, #128 and in some instances, As #1989. The peptides/inhibin/iodinated inhibin and antisera (at a prescribed dilution) were incubated overnight at 4° C. using standard methodologies. The antibody-bound iodinated inhibin was immunoprecipitated with the addition of an anti-sheep IgG serum raised in goats and the radioactivity was measured in a gamma counter. The concentration of peptide that gives a 50% fall in binding of iodinated inhibin (ED50) was determined and this value was used to give a measure of the affinity of the peptide for the antiserum. This methodology consisted of determining the ED50 of the peptide in the RIA using iodinated human recombinant inhibin as tracer with either As #41, As #128 or As #1989 and graded doses of either hr-inhibin or peptide as described in Example 2.

[2] = system: As #1989; experiment: RIA (Assay 2): competition with iodinated inhibin for As #1989; format: binding, rabbit; conditions: for As#1989 ED50: biotinylated peptides, 50% fall in binding of iodinated inhibin
Text: as §1

[3] = system: As #128; experiment: RIA (Assay 2): competition with iodinated inhibin for As #128; format: binding, sheep; conditions: for As#128 ED50: biotinylated peptides, 50% fall in binding of iodinated inhibin
Text: as §1

[4] = system: As #128; experiment: Solid phase assay (Assay 1): biotinylated peptides binding to As #128; set-up: species or system sheep; key: +++++ major contribution; + minor contribution; conditions: relative contribution
Experimental: This assay is a broad screen of the binding of the 31 biotinylated peptides to As #41 and #128 as recommended by Chiron Mimotopes.
The biotinylated peptides were initially bound to streptavidin-coated 96-well plates (2 hours at room temperature), antiserum #41 or #128 was then added (2 hours room temperature) to bind to the peptides. Detection of antiserum binding was assessed by a further incubation with an anti-ovine IgG serum labeled with the enzyme, horseradish peroxidase. The enzyme activity was assessed by conversion of a colorless substrate to a colored product that is detected in a spectrophotometer. The enzyme activity measured was proportional to the extent of the binding of the peptides.

[5] = system: As #128; experiment: Competitive 2-site assay (Assay 3), approach (a); format: binding, sheep; set-up: key: +++++ major contribution; + minor contribution; conditions: relative contribution
Text: This assay was developed to establish the relative importance of the individual peptides and peptide pools (identified as epitopes in Assays 1 and 2) in the sandwich antibody format used in the IFMA with As #128 as capture antibody and As #41 as detection antibody. Two approaches (a and b) were considered, Approach (a) explores the cross-reaction of peptides with inhibin for the immobilized As #128 while Approach (b) assesses their cross-reaction with inhibin for As #41.
Approach (a). The biotinylated peptide pools and/or individual peptides at various concentrations, in combination with a fixed concentration of hr-inhibin, were incubated for 2 hours with As #128-coated plates. The plates were then washed to remove any unbound material. Iodinated As #41 was then added to bind to the bound hr-inhibin, the plates washed and the bound radioactivity was measured in a gamma counter. The counts measured were proportional to the amount of hr-inhibin bound to both antisera. The possibility that a peptide contained two epitopes capable of linking As #128 and #41 was assessed in the absence of added hr-inhibin.

[6] = system: PO#14-R1; experiment: Cross-reaction of inhibin-related proteins in 14-R1 ELISA; format: binding, mouse; conditions: relative to rh inhibin A standard (=100); average of two experiments
Experimental: (§2) An ELISA system using 96-well microtiter plates was developed consisting of one alpha subunit antibody as coating antibody and an alkaline phosphatase-linked second antibody as label. The alkaline phosphatase activity was amplified using an ELISA amplification kit (Gibco, Life Technologies, Rockville Md., USA). The plate was initially coated with monoclonal antibody at 2 micrograms/well in 0.1 M bicarbonate buffer pH 9.4 overnight at room temperature and blocked with 50 mM TRIS/HCl, 1% bovine serum albumin (BSA) pH 7.4.
(§3) The ELISAs in application to non-serum samples consisted of 100 microliters sample or recombinant human (rh) inhibin A standard (provided by National Institute of Biological Standards and Control, Potters Bar, Herts, UK) in assay buffer (100 mM TRIS/HCl, 154 mM NaCl, 5% Triton-X-100, 10% BSA pH, 7.5) and 100 microliters assay buffer. In the assay of serum, the inhibin A standard (100 microliters) was diluted in assay buffer. Inhibin-free serum (100 microliters) was also added to make a total well volume of 200 microliters. The inhibin-free serum was obtained by incubating serum with an immobilized inhibin alpha subunit antibody. […] Serum samples were initially boiled in the presence of SDS (2% final concentration) and diluted 1:1 with assay buffer before adding 100 microliters to the wells. The inhibin-free serum and the SDS boiling steps were included to offset any potential matrix effects of serum known to affect other inhibin ELISAs although the need for these specific steps had not been assessed.
(§4) The plate was incubated with shaking overnight at room temperature. The wells were washed, and alkaline phosphatase (AP)-linked antibody added, incubated with shaking for 3 hours at room temperature and washed again. The substrate (NADPH, Gibco) was added and the plate incubated for 2 hours with shaking at room temperature. The amplifying enzymes (alcohol dehydrogenase and diaphorase, Gibco) were added and incubated for 5-15 min until appropriate color had developed. The plate was read at 490/630 nm on an ELISA plate reader.
(§5) The specificity of the ELISAs was assessed by determining the cross-reaction of inhibin-related proteins in the various ELISAs.

[7] = system: PO#14 + PO#23-R1; experiment: Cross-reaction of inhibin-related proteins in 14 + 23-R1 ELISA; format: binding, mouse; conditions: relative to rh inhibin A standard (=100); average of two experiments
Experimental: as §2, §3, §4, §5
As a result of an initial characterization of these ELISAs (see below), a combination of PO#14+PO#23 as coating antibodies and AP linked-R1 antibody as tracer was also assessed and its characteristics are also presented in Table 11 and 12 and FIG. 10c.

[8] = system: PO#23-R1; experiment: Cross-reaction of inhibin-related proteins in 23-R1 ELISA; format: binding, mouse; conditions: relative to rh inhibin A standard (=100); average of two experiments
Experimental: as §2, §3, §4, §5

[9] = non-biotinylated peptides, hr-inhibin A as standard

Molecule	As#41 ED50 [1] [nM]	As#1989 ED50 [2] [nM]	As#128 ED50 [3] [nM]	other results
SGSG NCHRVALNISFQEL [Peptide 10]	>10000	>2500	>10000	–
Hr-inhibin: human recombinant 30 kDa inhibin A [reference compound]	–	–	–	ED50 values As#41 [1, 9]: 2 to 8000 nM; ED50 values As#1989 [2, 9]: 0.1 nM; ED50 values As#128 [3, 9]: 2 nM
SGSG ERWIVYPPSFIFHY [Peptide 14]	>10000	>2500	>10000	–
SGSG PEEPAAHANCHRVA [Peptide 8]	>10000	>2500	4800	–
SGSG VYPPSFIFHYCHGG [Peptide 15]	>10000	>2500	>10000	–
SGSG LHIPPNLSLPVPGA [Peptide 19]	2100	>2500	<10	#128 Antibody screen Assay 1 [4]: +; #128 2-site competitive assay Assay 3 [5]: +
SGSG ELGWERWIVYPPSF [Peptide 13]	>10000	>2500	>10000	–
SGSG ISFQELGWERWIVY [Peptide 12]	>10000	>2500	>10000	–
SGSG LQRPPEEPAAHANC [Peptide 7]	1250	>2500	1600	#128 Antibody screen Assay 1 [4]: +; #128 2-site competitive assay Assay 3 [5]: +
SGSG GGCGLHIPPNLSLP [Peptide 18]	1050	>2500	60	#128 Antibody screen Assay 1 [4]: +; #128 2-site competitive assay Assay 3 [5]: +
SGSG VALNISFQELGWER [Peptide 11]	>10000	>2500	>10000	–
SGSG PLHVRTTSDGGYSF [Peptide 29]	5000	>2500	156	–
SGSG LPVPGAPPTPAQPY [Peptide 21]	1000	>2500	156	–
SGSG HYCHGGCGLHIPPN [Peptide 17]	1050	>2500	10000	–
SGSG SFIFHYCHGGCGLH [Peptide 16]	>10000	>2500	>10000	–
SGSG SFKYETVPNLLTQH [Peptide 32]	290	>2500	2500	–
SGSG AAHANCHRVALNIS [Peptide 9]	>10000	>2500	>10000	–
B1	–	–	–	14-R1 ELISA specificity [6]: 320; 14 + 23-R1 ELISA specificity [7]: 138; 23-R1 ELSIA specificity [8]: 253
B2	–	–	–	14-R1 ELISA specificity [6]: 100; 14 + 23-R1 ELISA specificity [7]: 100; 23-R1 ELSIA specificity [8]: 100
B3	–	–	–	14-R1 ELISA specificity [6]: 98.5; 14 + 23-R1 ELISA specificity [7]: 38.5; 23-R1 ELSIA specificity [8]: 41.5
B4	–	–	–	14-R1 ELISA specificity [6]: <0.2; 14 + 23-R1 ELISA specificity [7]: <0.2; 23-R1 ELSIA specificity [8]: <0.2
